Data as given in publication PMC8217011, “Natural brominated phenoxyphenols kill persistent and biofilm-incorporated cells of MRSA and other pathogenic bacteria” (Applied Microbiology and Biotechnology, 2020).
Where “and” joins values, the source holds several entries; their conditions need not be identical. Equal entries are not always repeated.

How the values were obtained:
[1] = system: stationary phase-induced persistent cells of MRSA strain Mu50; assay: Persister killing kinetics (CFU plating); type: cell-based, Staphylococcus aureus; conditions: start 10^8 CFU/mL
Method: For persister killing kinetics, cells were grown overnight until a density of OD600 nm > 5.0 was reached and then washed three times with PBS. Next, cell density was adjusted to 10^8 CFU/mL in 5 mL PBS. […] Analysis was performed as described above.

[2] = system: actively replicating MRSA strain Mu50; assay: Killing kinetics, actively replicating cells (CFU plating); type: cell-based, Staphylococcus aureus; conditions: MHB, start 10^6 CFU/mL; PPs at 4× MIC, moxifloxacin 20 μM; detection limit 10^2 CFU/mL
Method: S. aureus cells were freshly incubated in MHB until an OD600 nm of approx. 0.6 was reached. Next, the cells were diluted to 10^6 CFU/mL in 5 mL MHB. […] At certain time points (0, 0.5, 1, 3, 6, 8, 24 h), 100 μL was removed from the culture, diluted and plated onto MHA plates. After 24-h incubation, colonies were counted and viability (expressed as colony-forming units per mL (CFU/mL)) was calculated considering the dilution factor.

pre-formed MRSA biofilms = assay: Biofilm viability by CFU plating; type: cell-based, Staphylococcus aureus; conditions: 24 h of treatment, 4× minimal biofilm inhibitory concentration, moxifloxacin 20 μM
Method: Additionally, biofilm viability was quantified by CFU plating. Biofilms were pregrown as described above and treated for 24 h with 4× minimal biofilm inhibitory concentrations as calculated from the Resazurin reduction assay. Biofilms were dispersed by pipetting followed by sonification in a water bath. Dilutions were plated on Mueller-Hinton agar plates and incubated overnight at 37 °C.

[3] = system: Escherichia coli ATCC 25922; assay: MIC determination (microbroth dilution); type: cell-based; conditions: colistin alone
Method: (§1) Cultures were, if not stated differently, incubated at 37 °C with aeration and shaking (150 rpm) in Mueller-Hinton broth (MHB). Bacteria were freshly incubated at the next morning from an overnight pre-culture for actively growing bacteria to an OD600 nm of approx. 0.6. To ensure persistent growth form, the bacteria were grown overnight until a density at OD600 nm > 5.0 was obtained. For biofilm growth, some colonies from a Mueller-Hinton agar (MHA) plate were picked and resuspended in MHB. Cell density has been adjusted to OD600 nm = 0.8, and cells were sown into a flat-bottom 96-well plate to be incubated statically at 37 °C with aeration. Studies were mainly performed with S. aureus Mu50.
(§2) The minimal inhibitory concentration (MIC) has been determined according to the CSLI guidelines (CLSI [2012]). Briefly, in a sterile polystyrene U-bottom 96-well plate, a 2-fold serial dilution ranging from 100 to 0.78 μM of testing compounds has been prepared in 50 μL MHB. A freshly inoculated S. aureus culture was grown until OD600 nm of approx. 0.6 and diluted to 10^6 CFU/mL in MHB. Finally, 50 μL of the latter cell suspension was added to each well and then incubated statically for 18–24 h at 37 °C. MIC was determined using BacTiterGlo ATP assay (Promega, Madison, WI, USA) and Tecan Infinite F200 Pro (Tecan, Männedorf, Switzerland). Moxifloxacin and DMSO were used as positive and negative control, respectively. Sublethal concentrations of colistin (0.1 μM) were used in some experiments to increase the permeability of the gram-negative cell envelope for compound testing. For E. cloacae, a broth microdilution assay was performed using a serial 2-fold dilution in 96-well flat-bottomed plates (Falcon, BD Bioscience, Heidelberg) of both PPs in broth LB medium (Roth, Karlsruhe) at a concentration range of 50–0.024 μM.

[4] = system: Acinetobacter baumannii ATCC 747; assay: MIC determination (microbroth dilution); type: cell-based; conditions: colistin alone
Method: as §1, §2

gram-negative bacteria = assay: MIC determination, summary over gram-negative strains; type: cell-based; conditions: colistin concentration of 0.1 μM (0.12 μg/mL)
Method: as §2

Compound: CCCCCCCCCCCCCCCCn1cc[n+](Cc2ccccc2)c1C.[I-] [NH125, reference compound]
- time until viability reduced to the detection limit ([1]; PPs at 4× MIC, NH125 10 μM, detection limit 10^2 CFU/mL): ~3 h

Compound: COc1c(N2C[C@@H]3CCCN[C@@H]3C2)c(F)cc2c(=O)c(C(=O)O)cn(C3CC3)c12 [moxifloxacin, reference compound]
- decrease of viability of persistent cells after 24 h ([1]; 3-bromo-PP at 4× MIC, moxifloxacin control, 24 h): did not show any effect
- time until viability reached the detection limit [2]: 3 h
- reduction in viable cell counts in biofilms (pre-formed MRSA biofilms): virtually no effect

Compound: colistin [reference compound]
- MIC [3]: 0.78 μM and 0.90 μg/mL
- MIC [4]: 0.78 μM and 0.90 μg/mL
- growth of gram-negative bacteria (gram-negative bacteria): not inhibited
